Legend:
[1] = tested on: human vulval epidermoid carcinoma cell line A-431; assay: Inhibition of growth of A-431 xenografts in athymic nude mice, Test (c); assay type: in vivo, human xenograft in athymic nude mice (strain ONU:Alpk); settings: daily dose of 50 mg/kg, usually oral, relative to untreated controls
Procedure: (c) An in-vivo assay in a group of athymic nude mice (strain ONU:Alpk) which determines the ability of a test compound (usually administered orally as a ball-milled suspension in 0.5% polysorbate) to inhibit the growth of xenografts of the human vulval epidermoid carcinoma cell line A-431. A-431 cells were maintained in culture in DMEM supplemented with 5% FCS and 2 mM glutamine. Freshly cultured cells were harvested by trypsinization and injected subcutaneously (10 million cells/0.1 ml/mouse) into both flanks of a number of donor nude mice. When sufficient tumour material was available (after approximately 9 to 14 days), fragments of tumour tissue were transplanted in the flanks of recipient nude mice (test day 0). Generally, on the seventh day after transplantation (test day 7) groups of 7 to 10 mice with similar-sized tumours were selected and dosing of the test compound was commenced. Once daily dosing of test compound was continued for a total of 13 days (test days 7 to 19 inclusive). In some studies the dosing of the test compound was continued beyond test day 19, for example to test day 26. In each case, on the following test day the animals were killed and the final tumour volume was calculated from measurements of the length and width of the tumours. Results were calculated as a percentage inhibition of tumour volume relative to untreated controls.

[2] = tested on: human naso-pharyngeal cancer cell line KB; assay: Inhibition of EGF-stimulated growth of human naso-pharyngeal cancer cell line KB, Test (b); assay type: cell-based; settings: 72 h, EGF (10 ng/ml), 3 days, approximate
Procedure: (b) An in vitro assay which determines the ability of a test compound to inhibit the EGF-stimulated growth of the human naso-pharyngeal cancer cell line KB. […] Cell growth was determined after incubation for 3 days by the extent of metabolism of MTT tetrazolium dye to furnish a bluish colour. Cell growth was then determined in the presence of EGF (10 ng/ml) or in the presence of EGF (10 ng/ml) and a test compound at a range of concentrations. An IC50 value could then be calculated.

[3] = target: T1, EGF receptor tyrosine kinase (Homo sapiens, UniProt P00533); assay: Inhibition of EGF receptor tyrosine kinase in vitro, Test (a); assay type: biochemical; settings: approximate
T1 construct: Receptor tyrosine kinase was obtained in partially purified form from A-431 cells (derived from human vulval carcinoma); endogenous in cells; host or cells: A-431 cells (Triton X-100 solubilised membrane fraction)
Procedure: (a) An in vitro assay which determines the ability of a test compound to inhibit the enzyme EGF receptor tyrosine kinase. Receptor tyrosine kinase was obtained in partially purified form from A-431 cells (derived from human vulval carcinoma) by the procedures described below which are related to those described by Carpenter et al., J. Biol. Chem., 1979, 254, 4884, Cohen et al., J. Biol. Chem., 1982, 257, 1523 and by Braun et al., J. Biol. Chem., 1984, 259, 2051.
A-431 cells were grown to confluence using Dulbecco's modified Eagle's medium (DMEM) containing 5% fetal calf serum (FCS). The obtained cells were homogenised in a hypotonic borate/EDTA buffer at pH 10.1. The homogenate was centrifuged at 400 g for 10 minutes at 0-4° C. The supernatant was centrifuged at 25,000 g for 30 minutes at 0-4° C. […]
The test compound/EGF mixture solution (5 μl) was added to the test enzyme solution (10 μl) and the mixture was incubated at 0-4° C. for 30 minutes. […] Radioactivity present in the filter paper was measured using a liquid scintillation counter (Sequence A). […]
Receptor tyrosine kinase inhibition was calculated as follows: [formula]
The extent of inhibition was then determined at a range of concentrations of test compound to give an IC50 value.

[4] = tested on: human mammary carcinoma which expresses EGF receptor tyrosine kinase; settings: in words; athymic nude mice; Toi et al., 1990; cited from earlier work
[5] = tested on: another carcinoma which does not express EGF receptor tyrosine kinase; settings: in words; Toi et al., 1990; cited from earlier work

T1 sequence (P00533 25-1210): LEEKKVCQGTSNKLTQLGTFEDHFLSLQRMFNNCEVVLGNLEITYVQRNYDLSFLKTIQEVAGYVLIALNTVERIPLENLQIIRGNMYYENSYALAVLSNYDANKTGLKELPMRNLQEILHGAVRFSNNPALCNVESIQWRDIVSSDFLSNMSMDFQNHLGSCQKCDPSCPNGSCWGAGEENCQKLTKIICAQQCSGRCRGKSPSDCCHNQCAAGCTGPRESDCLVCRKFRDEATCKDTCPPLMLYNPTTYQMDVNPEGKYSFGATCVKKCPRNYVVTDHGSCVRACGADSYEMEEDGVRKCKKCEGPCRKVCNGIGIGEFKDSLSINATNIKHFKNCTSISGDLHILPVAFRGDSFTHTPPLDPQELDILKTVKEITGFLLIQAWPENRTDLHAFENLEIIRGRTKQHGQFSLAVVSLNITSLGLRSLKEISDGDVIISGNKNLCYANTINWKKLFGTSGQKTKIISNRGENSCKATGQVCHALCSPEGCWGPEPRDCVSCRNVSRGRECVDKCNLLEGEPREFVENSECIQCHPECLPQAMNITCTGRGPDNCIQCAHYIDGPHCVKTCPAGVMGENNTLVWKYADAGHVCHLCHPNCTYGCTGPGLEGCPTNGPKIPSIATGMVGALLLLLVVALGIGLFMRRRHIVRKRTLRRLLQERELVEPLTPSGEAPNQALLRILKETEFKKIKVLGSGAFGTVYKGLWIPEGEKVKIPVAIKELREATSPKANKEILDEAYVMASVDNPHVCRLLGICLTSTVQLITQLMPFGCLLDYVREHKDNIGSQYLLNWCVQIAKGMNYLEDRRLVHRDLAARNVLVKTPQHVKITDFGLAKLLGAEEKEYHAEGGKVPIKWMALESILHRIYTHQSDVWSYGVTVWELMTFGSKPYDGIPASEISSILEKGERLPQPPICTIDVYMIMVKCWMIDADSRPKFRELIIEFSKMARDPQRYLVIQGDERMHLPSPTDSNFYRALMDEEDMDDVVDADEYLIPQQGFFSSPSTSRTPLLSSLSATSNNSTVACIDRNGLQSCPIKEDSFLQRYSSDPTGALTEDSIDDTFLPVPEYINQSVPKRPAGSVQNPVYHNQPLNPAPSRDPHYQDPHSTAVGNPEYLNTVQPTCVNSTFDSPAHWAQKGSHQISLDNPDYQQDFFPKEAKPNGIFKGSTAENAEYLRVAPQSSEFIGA

Structure (SMILES)	inhibition of tumour volume [1]	IC50 [2]	IC50 [3]	growth of transplanted human mammary carcinoma [4]	growth of carcinoma not expressing EGF receptor tyrosine kinase [5]
Fc1ccc(Nc2ncnc3ccc(OCCCN4CCOCC4)cc23)cc1F [4-(3',4'-difluoroanilino)-6-(3-morpholinopropoxy)quinazoline]	greater than 50%	~1200 nM	–	–	–
CCN(CC)CCCOc1ccc2ncnc(Nc3ccc(F)c(Cl)c3)c2c1 [4-(3'-chloro-4'-fluoroanilino)-6-(3-diethylaminopropoxy)quinazoline]	greater than 50%	~100 nM	~3 nM	–	–
O=CN/C=C/c1cc(O)ccc1O [erbstatin]	–	–	–	specifically attenuates the growth	without effect on the growth
